Measured values from patent US20250092345A1, “INTER ORGAN PLATFORM FOR MICROPHYSIOLOGICAL SYSTEM ON A CHIP” (THE TRUSTEES OF COLUMBIA UNIVERSITY IN THE CITY OF NEW YORK, priority 2020, published 2025).

What was measured:
[1] = system: metastatic TE-ES (SK-N-MC); experiment: Metastatic engineered ES bone tumor (TE-ES) in isolated culture, linsitinib; type: cell-based, human; conditions: 12 μM
Description: (§1) The effects of linsitinib were studied in an experiment performed according to the 3-week treatment cycle used in the clinical trial (3 days of drug administration followed by 4 days without the drug, in 3 cycles), with luminescence signal serving as an indicator of cancer cell viability within the TE-ES.
(§2) Determining the effects of linsitinib on ES cells and osteoblasts within the engineered ES bone tumors across a 3-week clinical drug treatment regimen is shown in FIGS. 33A-33B. […] Supernatants were collected from each individual sample across the duration of the drug treatments and were analyzed for osteoblast function (OCN, OPN) and for cytotoxicity (LDH) (mean±s.e.m., n=3).
(§3) Two weeks following the initiation of osteogenic differentiation, aggregates of ES tumor cells were prepared as described previously, using 0.3×10^6 cells per aggregate. After 1 week of culture, corresponding to the end of bone tissue culture (3 weeks), the primary ES cell aggregates were placed into the engineered bone constructs (3 aggregates per construct, placed apart of each other). Tumor models were established for two different types of primary ES cells: non-metastatic (RD-ES) and metastatic (SK-N-MC). Tissue engineered RD-ES and SK-N-MC tumors were cultured in the RPMI and EMEM media, respectively, supplemented with 10% FBS and 1% penicillin/streptomycin. Bone constructs cultured without tumor cell aggregates (TE-bone) in RPMI and EMEM media were used as controls.
(§4) Specifically, linsitinib was dissolved at a 10 mM concentration in DMSO (Corning) and mixed in with the respective cell medium at a […] concentration unless otherwise noted. Vehicle treatments involved just the addition of DMSO at identical volumes as a control. Tissues were randomly assigned to experimental groups. Medium was changed every day.
(§5) Cell viability was analyzed using a previously established protocol. Cancer cell viability was measured for GFP-Luciferase labelled cancer cells using ONE-Glo luciferase substrate that was prepared according to manufacturer's protocol (Promega). Samples were collected following 3, 7, and 21 days cycles of linsitinib treatment. Where noted, longitudinal cell viability was also assessed using luminescence, though at the cost of signal strength. Briefly, in vivo grade VivoGlo™ Luciferin (Promega) was made at a 200× stock concentration (30 mg/ml) in water, added to sample culture media at a 1:200 dilution, and scanned using a spectrophotometer (Biotek). Some of the IC50 values were determined using cell viability data generated using an MTT assay (RealTime-Glo™ MT Cell Viability Assay, Promega) that were analyzed according to manufacturer's protocol.
Osteocalcin (OCN), osteopontin (OPN), and lactic acid dehydrogenase (LDH) secreted levels were all measured using a similar approach. […] LDH secretion was determined using a Lactate Dehydrogenase Assay Kit (Colorimetric; Abcam).

IGF-1 receptor = biological target: T1, IGF-1 receptor (Homo sapiens, UniProt P08069); experiment: Phospho-IGF1R ELISA in ES cell monolayers; type: cell-based; conditions: 12 μM for 6 hours
T1 construct: endogenous in cells; host or cells: RD-ES (ATCC HTB-166) and SK-N-MC (ATCC HTB-10) Ewing sarcoma cell lines

[2] = system: engineered cardiac tissues; experiment: Cardiac tissue in the integrated platform with microfluidic perfusion, linsitinib; type: cell-based, human; conditions: after linsitinib exposure
Description: The TE-ES and cardiac tissues were then cultured in the integrated platform with perfusion of mixed media. Linsitinib was introduced into the reservoir and delivered to tissues via circulation of perfusate and diffusion into the tissues.
Human iPS cell-derived cardiomyocytes at day 13 of differentiation were combined with normal human dermal fibroblasts (NHDF; Lonza) at a ratio of 75% human iPS-derived cardiomyocytes and 25% NHDF, for a total of 1 million cells per tissue. The hydrogel was formed by mixing 33 mg/mL of human fibrinogen (Sigma-Aldrich) with 25 U/mL of human thrombin (Sigma-Aldrich), at an 84:16 ratio. […]
To measure the cardiac contractility online, we took contractility videos of the tissues that were analyzed using the native MATLAB code we previously developed. Tissue contractility was measured by tracking the change in tissue area as a function of time. […] Absolute differences in cell area from the baseline frame were then calculated to create a time course of cell area changes over time. The resulting time courses were analyzed using a native MATLAB (MATHWorks) automated peak finding algorithm to determine locations of maximum cell contractions in the time profiles. Beat period lengths were determined from the length of time between the pairs of local maxima, and the beat frequencies were determined by inverting beat periods. […]

[3] = system: non-metastatic and metastatic ES cell lines (RD-ES, SK-N-MC); experiment: MTT viability assay in ES cell monolayers; type: cell-based, human; conditions: 0-100 μM over 72 hours
Description: MTT viability assay was used to determine drug toxicity, with luminescence generated by viable cells measured at the endpoint (10^4 cells per well, mean±s.e.m., n=3). […] In order to determine cancer cell viability, cells were lysed and treated with luciferin using a Bright-Glo™ assay, with subsequent luminescence measured (10^4 cells per well, mean±s.e.m., n=3).
as §5

[4] = system: non-metastatic TE-ES (RD-ES); experiment: Non-metastatic engineered ES bone tumor (TE-ES) in isolated culture, linsitinib; type: cell-based, human
Description: as §1, §2, §3, §4
To assess apoptosis, paraffin embedded tissue sections were first deparaffinized with CitriSolv, rehydrated with graded series of ethanol washes, and then stained with a Click-iT® TUNEL Alexa Fluor® imaging assay (Thermo Fisher Scientific). Following nuclear counterstaining with DAPI (Life Technologies), the TUNEL labelled slides were imaged with an IX81 inverted fluorescent microscope (Olympus) and a Pike F032B camera (ALLIED Vision), using NIS-Elements AR software, and processed using ImageJ (NIH). Four representative images per condition were then analyzed using the previously developed automatic TUNEL cell counter plugin for ImageJ to quantify DAPI^+ cells and TUNEL^+ cells.
as §5
Osteocalcin (OCN), osteopontin (OPN), and lactic acid dehydrogenase (LDH) secreted levels were all measured using a similar approach.

T1 sequence (P08069 31-1367): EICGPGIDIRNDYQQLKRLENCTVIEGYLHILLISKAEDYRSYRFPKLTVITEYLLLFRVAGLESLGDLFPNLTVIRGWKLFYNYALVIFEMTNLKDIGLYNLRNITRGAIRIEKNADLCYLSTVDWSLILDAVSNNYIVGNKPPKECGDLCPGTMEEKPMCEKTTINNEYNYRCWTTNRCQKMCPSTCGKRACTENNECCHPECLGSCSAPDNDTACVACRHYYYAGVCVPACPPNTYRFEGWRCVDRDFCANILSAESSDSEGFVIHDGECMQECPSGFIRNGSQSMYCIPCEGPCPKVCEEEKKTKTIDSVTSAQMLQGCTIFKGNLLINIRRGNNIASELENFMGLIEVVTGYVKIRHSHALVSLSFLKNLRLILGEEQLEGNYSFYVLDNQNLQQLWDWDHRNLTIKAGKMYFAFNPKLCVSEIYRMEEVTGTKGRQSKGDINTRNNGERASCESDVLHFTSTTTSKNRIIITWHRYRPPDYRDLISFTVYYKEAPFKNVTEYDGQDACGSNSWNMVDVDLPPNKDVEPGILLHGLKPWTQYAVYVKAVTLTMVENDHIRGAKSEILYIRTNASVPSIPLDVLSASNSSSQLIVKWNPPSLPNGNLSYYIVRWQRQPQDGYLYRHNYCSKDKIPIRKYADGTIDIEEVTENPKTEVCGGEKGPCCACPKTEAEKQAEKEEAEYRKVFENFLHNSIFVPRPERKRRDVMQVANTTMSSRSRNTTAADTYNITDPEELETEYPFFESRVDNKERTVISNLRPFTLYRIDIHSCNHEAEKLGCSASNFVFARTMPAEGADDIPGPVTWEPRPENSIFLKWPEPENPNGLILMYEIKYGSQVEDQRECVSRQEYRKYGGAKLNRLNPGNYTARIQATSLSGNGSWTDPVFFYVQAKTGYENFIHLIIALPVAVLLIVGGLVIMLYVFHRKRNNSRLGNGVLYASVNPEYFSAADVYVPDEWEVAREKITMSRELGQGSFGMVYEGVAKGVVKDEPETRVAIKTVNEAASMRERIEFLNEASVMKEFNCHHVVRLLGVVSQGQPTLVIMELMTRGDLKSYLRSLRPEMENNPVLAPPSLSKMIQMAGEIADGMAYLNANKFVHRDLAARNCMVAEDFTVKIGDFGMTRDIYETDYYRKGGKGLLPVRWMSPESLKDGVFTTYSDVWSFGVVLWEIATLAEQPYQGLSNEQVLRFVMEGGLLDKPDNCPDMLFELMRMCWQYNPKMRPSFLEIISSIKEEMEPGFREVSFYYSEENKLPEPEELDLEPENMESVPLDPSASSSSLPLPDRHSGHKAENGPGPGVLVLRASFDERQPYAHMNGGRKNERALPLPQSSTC

In the case of `C[C@]1(O)C[C@@H](c2nc(-c3ccc4ccc(-c5ccccc5)nc4c3)c3c(N)nccn32)C1` [linsitinib], the “cytotoxicity (LDH secretion)” value ([1]; 3-week regimen) is reported as “spiked”, the osteocalcin secretion ([1]; 3-week regimen) is reported as “decreased” and the “cancer cell population (luminescence) across the clinical regimen” value ([1]; 21-day treatment regimen) is reported as “decrease in drug efficacy, as the cancer cell population continued to expand”. For the same compound, the “drug response (luminescence)” value ([1]; after 3 days) was “significant drug response”, the osteopontin secretion ([1]; throughout the 21 days) was “decreased” and the “levels of phosphorylated IGF-1R” value (IGF-1 receptor) was “significant decreases”. For the same compound, the “inotropic response to subsequent isoproterenol” value [2] was “expected inotropic response”, the “IC50 (MTT viability assay)” value [3] was “two orders of magnitude lower than the effective plasma concentration observed in patients” and the “response of cell viability (luminescence) to concentration” value ([4]; 0, 1.2, 12 and 120 μM, 72 hours) was “dose-dependent response”. The “apoptosis (TUNEL assay)” value ([4]; 12 μM) was “increases in apoptosis”, the “cell viability (luminescence)” value ([4]; 12 μM) was “significant reduction” and the OCN secretion ([4]; 12 μM regimen, 1:1 mixed media) was “increased only slightly”. The “cancer cell population level maintained (luminescence)” value ([4]; 12 μM regimen, 1:1 mixed media) was ~30 % of their starting population, the “cytotoxicity (LDH secretion)” value ([4]; 12 μM, 3-week regimen) was “spiked in both models immediately following drug administration, but significantly more so in the responsive, non-metastatic ES model” and the osteocalcin secretion ([4]; 12 μM, 3-week regimen) was “decreased”. For the same compound, the “cancer cell population (luminescence) across the clinical regimen” value ([4]; 12 μM, 21-day treatment regimen) was “initial decrease in cancer cell population in the non-metastatic model and this population appeared unable to continue expanding”, the “drug response (luminescence)” value ([4]; 12 μM, after 3 days) was “significant drug response” and the osteopontin secretion ([4]; 12 μM, throughout the 21 days) was “significantly increased”. The “drug response of ES resistant-cell derived tumors (luminescence)” value ([4]; second 21-day 12 μM regimen on tumors from sorted resistant cells) was “significant initial drug response”.
